Consider 32 substances from patent US20070041904A1, “Peptides whose uptake by cells is controllable” (priority 2003, published 2007).

pIC50: −log10 of the molar value.

For experiment [1], the system named is Jurkat cells. Nature of the experiment: 99mTc-labeled ACPP uptake into Jurkat cells, gamma counting. In kind it is cell-based, human. The following applies: for increase in cell-associated radioactivity after cleavage: MMP-9 cleaved vs intact. On the procedure:
ACPPs may be used to deliver radioactive cargo to target cells and tissues. […] Spiked with 0.25 mCi Tc label, 25 nM intact or cleaved substrate. The target Jurkat cells were incubated with the peptides for 30 min at 37° C., and then washed 3 times with HBSS (HEPES-buffered saline solution) at room temperature (RT). 20 hours later, cells were counted by Gamma counter.
Spiked (4%) with 60 μCi ^99mTc-labeled peptide, the target Jurkat cells were loaded with 2 μM intact or MMP-9-cleaved peptide at 37° C. for 30 min. Then, the cells were washed with RT HBSS 3 times, and counted (Gamma counter) 20 hours later.
The use of ACPP labeled with technetium-99m (^99mTc) as described in Example 19 can be extended for use as an imaging agent for mouse models of cancer. One obvious advantage of gamma scintigraphy as compared to fluorescent imaging is that gamma imaging reaches much deeper into tissue. As described above, various carrier-conjugated ACPPs that incorporate N-epsilon-bis(2-pyridylmethyl)lysine (DPK), a high-affinity chelator for technetium tricarbonyl, Tc(CO)3, have been prepared. […] The simplest of these compounds, (11 KDa-mPEG)-e9-XPLGLAG-r9-[DPK-^99mTc(CO)3] was first tested on isolated cultured cells. (Note: X denotes a 6-aminohexanoyl spacer, and lower case letters denote D-amino acids.) Before cleavage, the uptake of this CPP into Jurkat lymphocytes was only 1.9% of the positive control CPP, r9-[DPK-^99mTc(CO)3].

The test system of experiment [2] is Jurkat cells. Put plainly: Gd-labeled ACPP uptake into Jurkat cells, ICP-MS. In kind it is cell-based, human. On the procedure: Gadolinium chloride (GdCl3) is used to add gadolinium (Gd) to provide a contrast-enhancing, PEGylated ACPP mPEG-S—CH2CONH-e9-ahx-PLGLAG-r9-K[DOTA(Gd)]-CONH2 (SEQ ID NO: 75). It will be understood that in other embodiments the ACPP need not include a PEG moiety, and may include other moieties as well. […] Jurkat cells were incubated with 8 μM of the intact or of the cleaved substrate at 37° C. for 30 min; then the cells were washed four times with RT HBSS. Gd concentration was determined by ICP-MS (inductively coupled plasma mass spectroscopy). Cleavage led to a 19-fold increase in uptake by target cells.
Three ACPPs carrying Gd^3+ were synthesized: (11-KDa-mPEG)-e9-XPLGLAG-r9-K(DOTA-Gd), Suc9-(70 KDa dextran)-e9-XPLGLAG-r9-K(DOTA-Gd), and Suc9-(70 KDa dextran)-e9-XPLGLAX-r9-K(DOTA-Gd). The first of these ACCPs was tested at 8 μM on isolated Jurkat lymphocytes. Gd^3+ uptake was measured by inductively coupled plasma mass spectroscopy. […] Thus, MMP-mediated cleavage of the test peptide increased uptake by a factor of 19-fold […].

Experiment [3] in a line: Phage display selection, all screens. On the procedure:
(§1) In-vivo selections were performed by injection of phage libraries into mice either containing tumor xenografts (HT1080 cells) or mammary tumors in transgenic mice (MMTV-PyMT). Tumor tissues were removed 3-24 hrs after injection. The rescued phage were re-amplified in bacteria and reinjected into another mouse for up to 7 iterative cycles of selection. Representative phage were isolated at each round and sequenced to monitor the selection process.
(§2) In-vitro selection strategies involved screening for phage that are specifically cleaved by purified enzymes or tissue extracts associated with tumor tissue while also selecting against cleavage by enzymes and extracts associated with normal tissue. […] The inventors have employed two different in-vitro selection paradigms. In the initial selection, the 2.5×10^6 diversity M13 library was treated with the kidney proteases meprin and neprilysin for 3 hours. Ni-NTA agarose (Qiagen) was then added and allowed to bind to the phage for 5-15 minutes, then the Ni-NTA agarose carrying the phage was resuspended with MMP-9 and incubated at 37 for 2-3 hours. After removing the beads by centrifugation, phage released into the supernatant were plated with fresh bacteria. This procedure selects for phage that remain uncleaved by kidney proteases but are then released by MMP-9. This procedure was repeated for as many as six rounds with representative phage being isolated and sequenced to monitor the selection process. The same selection procedure was also performed with liver/kidney extract instead of meprin/neprilysin and tumor extract instead of MMP-9. The resulting sequences are tabulated below. The most promising peptides were chemically resynthesized with flanking e9 and r9 sequences and a C-terminal fluorescein tag. They were then assayed by tricine gel electrophoresis for cleavage by tumor, liver, kidney extracts and MMP-9.

Experiment [4] concerns neprilysin / meprin / MMP-9. Put plainly: In-vitro phage selection, Nep/Mep/MMP-9. How it is done: as §2
A further experiment deals with furin. Put plainly: Furin inhibition assay. In kind it is biochemical. How it is done:
The furin assay was performed with Boc-Arg-Val-Arg-Arg-MCA substrate (Bachem) at a final concentration of 200 μM in 100 μl of 100 mM MES/NaOH, pH 7.0, containing 1 mM CaCl2. Inhibitory peptides were pre-incubated with 1 unit furin enzyme (NEB) for 30 min prior to addition of substrate. Assays were performed in triplicate by incubation at 37° C. for 4 hours in a 96-well clear-bottom black-wall Costar plate. Release of MCA was measured by excitation at 380 nm and emission at 460 nm. IC50's were determined as the concentration of inhibitor required to inhibit 50% of the emission increase at 460 nm over the no-enzyme control. […]

Experiment [5] in a line: In-vitro phage selection, liver/kidney/tumor extracts. On the procedure:
as §2

The test system of another experiment is MMP-2. Nature of the experiment: Cleavage kinetics for MMP-2 cleavage. The experiment is classed as biochemical. From the text:
Cleavage kinetics for MMP-2 cleavage of H2N-e6-XPLGLAG-r9-Xc(Cy5)-CONH2 (where X≡aminohexanoic acid) are illustrated in FIG. 27.
Cleavage of a MMP-2 substrate ACPP is illustrated in FIG. 27.

Experiment [6] deals with HT1080 tumor xenografts or mammary tumors (MMTV-PyMT). Put plainly: In-vivo phage selection. Also noted: species or system mice. As to conditions: mouse. On the procedure:
as §1

For the next experiment, the system named is HT-1080 tumors. Put plainly: In vivo fluorescence imaging of HT-1080 tumor xenografts. Also noted: species or system nude mice. As to conditions: mean±SE.

furin, sequence (P09958 108-576 limits assumed): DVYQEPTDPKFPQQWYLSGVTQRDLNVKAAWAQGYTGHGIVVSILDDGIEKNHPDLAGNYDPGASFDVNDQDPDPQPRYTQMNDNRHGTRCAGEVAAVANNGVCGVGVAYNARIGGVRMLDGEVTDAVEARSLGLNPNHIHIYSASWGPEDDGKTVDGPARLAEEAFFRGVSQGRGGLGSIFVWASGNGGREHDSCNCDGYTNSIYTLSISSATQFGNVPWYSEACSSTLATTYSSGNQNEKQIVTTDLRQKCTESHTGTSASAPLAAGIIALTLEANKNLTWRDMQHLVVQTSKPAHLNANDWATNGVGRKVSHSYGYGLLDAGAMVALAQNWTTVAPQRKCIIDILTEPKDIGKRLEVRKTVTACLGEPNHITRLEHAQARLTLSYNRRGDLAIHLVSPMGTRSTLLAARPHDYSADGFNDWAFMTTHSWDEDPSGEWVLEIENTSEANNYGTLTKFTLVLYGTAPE
Procedure for HT-1080 tumors: Xenografts in Mice. Nude mice (age, 4-6 weeks) were injected s.c. with ≈10^6 HT-1080 cells. […] Animals were then imaged at various times by using a Nikon f/1.2 camera lens in front of a cooled charge-coupled device camera (SenSys, Photometrics, Tucson, Ariz.). For longer lasting imaging studies, animals were allowed to wake up after 2 h of anesthesia and were reanesthetized at ≈4 and 6 hr for further data collection. […] After imaging was ended, animals were killed with halothane, and organs of interest were harvested and weighed. […] Cy5 fluorescence was imaged as described above.
We next tested whether ACPPs could light up protease expressing human tumor xenografts in whole mice. We chose HT-1080 tumors in the axilla of nude mice because these tumors express both MMP-2 and MMP-9 and have been used to test other MMP-2 cleavable contrast agents (22, 26). […] Anesthetized mice were injected through the tail vein with either an MMP-2 cleavable ACPP, an isomeric scrambled version verified not to be a substrate for MMP-2 or MMP-9, or an all-D-amino acid version. […] To quantitate the results, we measured the contrast index defined as (fluorescence intensity of tumor−autofluorescence)/(fluorescence of normal contralateral region−autofluorescence).

On to “(11 KDa-mPEG)-e9-XPLGLAG-r9-[DPK-^99mTc(CO)3]”, for which, in the experiment with Jurkat cells [1], the “increase in cell-associated radioactivity after cleavage” value is listed as 57 -fold. In the experiment with Jurkat cells [1] (after MMP-9), the “uptake after cleavage, % of positive control” value is reported as 107%. Moreover, the “uptake before cleavage, % of positive control CPP” value in the experiment on Jurkat cells [1] (positive control r9-[DPK-99mTc(CO)3]) was 1.9%.
As for (11-KDa-mPEG)-e9-XPLGLAG-r9-K(DOTA-Gd), the “increase in Gd uptake after cleavage” value in the experiment on Jurkat cells [2] (8 μM) was 19 -fold. In the experiment on Jurkat cells [2] (8 μM, ICP-MS), the “Gd3+ uptake, MMP-9-cleaved peptide” value stood at 737 µM and the “Gd3+ uptake, intact peptide” value was 39 µM.
Take ARKRSQ: the “Total # times isolated” value in experiment [3] is recorded as 2. In [4], the “# times identified in Nep/Mep/MMP-9 screen” value turned out to be 2.
In the case of Ac-r9-k-NH2 [reference compound], the pIC50 (in general, the negative decadic logarithm of the IC50, by convention in mol/L) in the experiment on furin (intact / uncleaved peptide) was 5.47.
For DSNAES, the “Total # times isolated” value in experiment [3] is recorded as 4. In [4], the “# times identified in Nep/Mep/MMP-9 screen” value is recorded as 3. The “# times identified in liver/kidney/tumor screen” value in [5] stood at 1.
Consider DVGTTE, for which the “Total # times isolated” value in experiment [3] amounted to 5. For the same substance, the “# times identified in Nep/Mep/MMP-9 screen” value in experiment [4] is recorded as 5.
As to FMEIET, in experiment [3], the “Total # times isolated” value worked out at 3. In addition, the “# times identified in Nep/Mep/MMP-9 screen” value in experiment [4] is 3.
Consider GGHTRQ, for which the “Total # times isolated” value in [3] is on record as 2. Also, the “# times identified in Nep/Mep/MMP-9 screen” value in experiment [4] is reported as 2.
Take GLWQGP: the “Total # times isolated” value in [3] was found to be 7. In [5], the “# times identified in liver/kidney/tumor screen” value came out at 7.
For the substance GMMYRS, the “Total # times isolated” value in experiment [3] is 4. For the same substance, the “# times identified in Nep/Mep/MMP-9 screen” value in experiment [4] is 1. Further, the “# times identified in liver/kidney/tumor screen” value in experiment [5] came out at 3.
Turning to H2N-e6-XPLGLAG-r9-Xc(Cy5)-CONH2, in the experiment with MMP-2, the Km – broadly, the substrate concentration at which the rate is half of its maximum – came to 534 µM; the kcat (in general, the maximal rate divided by the concentration of active sites) worked out at 15.0 s⁻¹; the kcat/Km was 28,037 M^−1s^−1.
In the case of HEVVAG, the “Total # times isolated” value in [3] is on record as 2. In [4], the “# times identified in Nep/Mep/MMP-9 screen” value amounted to 2.
IDKQLE: in experiment [3], the “Total # times isolated” value is listed as 3. In addition, the “# times identified in Nep/Mep/MMP-9 screen” value in experiment [4] is reported as 3.
For INGKVT, the “Total # times isolated” value in experiment [3] was 2. Also, the “# times identified in Nep/Mep/MMP-9 screen” value in experiment [4] was found to be 2.
Consider ITDMAA, for which the “Total # times isolated” value in [3] is listed as 4. Also, the “# times identified in in-vivo screen” value in experiment [6] worked out at 1. The “# times identified in liver/kidney/tumor screen” value in experiment [5] is given as 3.
On to LPGMMG, for which the “Total # times isolated” value in experiment [3] was 5. For the same substance, the “# times identified in liver/kidney/tumor screen” value in [5] was determined as 5.
As for QCTGRF, in experiment [3], the “Total # times isolated” value was 6. For the same substance, the “# times identified in in-vivo screen” value in experiment [6] came to 1. For the same substance, the “# times identified in Nep/Mep/MMP-9 screen” value in [4] was determined as 1. Moreover, the “# times identified in liver/kidney/tumor screen” value in experiment [5] is reported as 4.
RLQLKL: the “Total # times isolated” value in experiment [3] is listed as 12. In experiment [6], the “# times identified in in-vivo screen” value came out at 1. Besides, the “# times identified in liver/kidney/tumor screen” value in [5] came to 11.
With RWRTNF, the “Total # times isolated” value in [3] amounted to 4. Also, the “# times identified in Nep/Mep/MMP-9 screen” value in [4] was 4.
TDLGAM: the “Total # times isolated” value in [3] is recorded as 5. In experiment [5], the “# times identified in liver/kidney/tumor screen” value was determined as 5.
Regarding TSAVRT, in experiment [3], the “Total # times isolated” value came out at 2. The “# times identified in in-vivo screen” value in experiment [6] is reported as 2.
WRNTIA: in experiment [3], the “Total # times isolated” value was 3. Further, in [4], the “# times identified in Nep/Mep/MMP-9 screen” value is given as 3.
Turning to WRPCES, the “Total # times isolated” value in [3] is 3. Besides, the “# times identified in in-vivo screen” value in experiment [6] is 1. Further, the “# times identified in Nep/Mep/MMP-9 screen” value in experiment [4] is 2.
Turning to “[11 kDa PEG]-X-e9-XPLG*LAG-r9 [cleavable ACPP]”, the “contrast index (tumor−autofluorescence)/(normal contralateral−autofluorescence)” value in the experiment with HT-1080 tumors turned out to be 2.1±0.17.
The same measure, in the same setting: under “[11 kDaPEG]-X-e9-XLALGPG-r9 [scrambled isomer]” stands 1.3±0.16; under “[11-kDa PEG]-X-e9-Xplglag-r9-Xk(Cy5) [all-D-amino acid control]”, 1.5±0.11.
On to “decanoyl-RVKR-chloromethylketone [reference compound]”, for which the pIC50 in the experiment on furin (control inhibitor) is 7.57.
For e9-XPLGLAG-r9-Xk-NH2, in the experiment with furin (intact / uncleaved peptide), the pIC50 is 4.57.
Take “mPEG(11 kd)-S—CH2—CONH-ahx-e9-ahx-PLGLAG-r9-ahx-k-CONH2”: in the experiment on Jurkat cells [1], the “increase in cell-associated radioactivity after cleavage” value is listed as 38 -fold.
In the experiment on furin (intact / uncleaved peptide), mPEG(11kd)-e9-XPLGLAG-r9-Xk-NH2 showed a pIC50 of under 4.30.
On to “mPEG-S—CH2CONH-e9-ahx-PLGLAG-r9-K[DOTA(Gd)]-CONH2”, for which, in the experiment with Jurkat cells [2] (8 μM), the “increase in Gd uptake after cleavage” value was 19 -fold.
In the case of r9-K(DOTA-Gd) [reference compound], the “Gd3+ uptake, positive control CPP” value in the experiment with Jurkat cells [2] (ICP-MS) worked out at 504 µM.
